Test results reported in patent publication US4035503A, “Xanthene and thioxanthene derivatives, compositions thereof and a method of preparation thereof” (Kefalas A/S, priority 1973, dated 1977).
Like-named read-outs stand apart in the source and are kept apart here.

System: methylphenidate
Experiment: Methylphenidate antagonism in mice (antagonism of biting of corrugated paper)
Format: in vivo, NMRI male mice
Conditions: for ED50: Mus musculus; for ED50 / Methylphenidate antagonism, duration of peak effect: mice; for Methylphenidate antagonism, comparison in words (peak effect and duration): compared within the table, with known substances
From the text: The test may briefly be described as follows:
As animals were used NMRI male mice weighting 18-25 grams.
5 × 2 mice are used for each dose level.
[…] At each time interval separate groups of mice were used. After administration of methylphenidate the mice are placed in the observation cages, 2 in each cage, where they remain for one hour. The cages are placed on corrugated paper, the corrugations facing upwards. It is examined whether or not the mice have been biting the corrugated paper. […] At each time interval separate groups of mice were used. The peak effect was determined for the test substances and also for a number of known neuroleptics.
The test was carried out on a number of the novel compounds of Formula I and on a number of closely related thiaxanthene derivatives.

[1] = ip, i.p. test substance, 24 h after administration, read-out: Methylphenidate antagonism, ED50 24 h i.p.
[2] = route p.c. [sic], at peak effect, read-out: Methylphenidate antagonism, Peak effect ED50 p.c.

Row | SMILES | ED50 [1] [mg/kg] | ED50 [2] [mg/kg] | Methylphenidate antagonism, comparison in words (peak effect and duration) | Methylphenidate antagonism, duration of peak effect (i.p. test substance) [h]
1 | CN(C)CC=CC1c2ccccc2Sc2ccc(Cl)cc21 (stereo not drawn) [Lu 8-030, 2-Chloro-9-(3-dimethylamino-1-propenyl)-thioxanthene] | > 20 | 5.5 | a more prolonged activity while the peak effect remains at the same level or is somewhat higher | 3
2 | OCCN1CCN(CC=CC2c3ccccc3Sc3ccc(C(F)(F)F)cc32)CC1 (stereo not drawn) [Lu 9-212, 2-Trifluoromethyl-9-(3-(4-(2-hydroxyethyl)-piperazin-1-yl)-1propenyl) thioxanthene] | > 10 | 0.13 | a more prolonged activity while the peak effect remains at the same level or is somewhat higher | 10
3 | OCCN1CCN(CC=CC2c3ccccc3Sc3ccc(Cl)cc32)CC1 (stereo not drawn) [Lu 9-244, 2-Chloro-9-(3-(4-(2-hydroxyethyl)piperazin-1-yl)-1-propenyl) thioxanthene] | 14.1 | 0.22 | a more prolonged activity while the peak effect remains at the same level or is somewhat higher | 10
4 | OCCN1CCN(CC=CC2c3ccc(F)cc3Sc3ccc(C(F)(F)F)cc32)CC1 (stereo not drawn) [Lu 10-153, 2-Trifluoromethyl-6-fluoro-9-(3-(4-(2-hydroxyethyl)piperazine1-yl)-1-propenyl)thioxanthene] | 0.06 | 0.03 | unique in combining at the same time the most potent peak effect but also the long lasting effect | 30
5 | CN(C)CC=CC1c2ccc(F)cc2Sc2ccc(C(F)(F)F)cc21 (stereo not drawn) [Lu 11-186, 2-Trifluoromethyl-6-fluoro-9-(3-dimethylamino-1-propenyl)-thioxanthene] |  | 0.08 |  | 8
6 | OCCC1CCN(CC=CC2c3ccc(F)cc3Oc3ccc(C(F)(F)F)cc32)CC1 (stereo not drawn) [Lu 11-200, 2-Trifluoromethyl-6-fluoro-9-(3-(4-(2-hydroxyethyl)piperidin-1-yl)-1-propenyl) xanthene] | 1.6 | 0.2 |  | 17
7 | OCCC1CCN(CC=CC2c3ccc(F)cc3Sc3ccc(C(F)(F)F)cc32)CC1 (stereo not drawn) [Lu 12-001] | 0.1 | 0.2 |  | 72
8 | CN(C)CC/C=C1/c2ccccc2Sc2ccc(Cl)cc21 [α-chlorprothixen, trans-9-(3-dimethylaminopropylidene)-2-chloro-thioxanthene, reference compound] | > 20 | 2.6 |  | 2
9 | OCCN1CCN(CC/C=C2/c3ccccc3Sc3ccc(Cl)cc32)CC1 [α-clopenthixol, 9-[3-(4-(2-hydroxyethyl)piperazinyl-(1))-propylidene]-2-chloro-thioxanthene, reference compound] | > 20 | 1.3 |  | 6
10 | OCCN1CCN(CC/C=C2/c3ccccc3Sc3ccc(C(F)(F)F)cc32)CC1 [α-flupenthixol, 9-[3-(4-(2-hydroxyethyl)piperazinyl-(1))-propylidene]-2-trifluoromethyl-thioxanthene, reference compound] | > 20 | 0.22 |  | 6
